Consider 2 compounds from PMC4137556 (Biochimica et biophysica acta, 2013).

In data set [1] the test system is neuraminidase from Arthrobacter ureafaciens. The experiment in a line: Neuraminidase inhibition. The note with it: Arthrobacter ureafaciens enzyme; up to 50 μM. It counts as biochemical.
A further data set deals with chicks. The experiment in a line: Toxicity in chicks. It is filed as in vivo. The note with it: i.c.v. 60 μg/g.
Data set [2] concerns the target voltage-gated Ca2+ (Cav1.2) channel (Homo sapiens, UniProt Q13936). Briefly: Voltage-gated Ca2+ channel inhibition/activation. It is filed as cell-based. Conditions: ASPA administered alone, up to micromolar concentrations.
The next data set addresses proteinase K (Parengyodontium album, UniProt P06873). Briefly: Proteolytic stability against proteinase K. It counts as in vitro ADME. Conditions: proteinase K from Tritirachium album; 50 °C, up to 48 h.
Data set [3] concerns the target voltage-gated Na+ (NaV1.2) channel (Homo sapiens, UniProt Q99250). Briefly: Voltage-gated Na+ channel inhibition/activation. It counts as cell-based. Conditions: ASPA administered alone, up to micromolar concentrations.
Data set [4] concerns neuraminidase from Clostridium perfringens. It is filed as biochemical.
The target in another data set is T1, thermolysin (Bacillus thermoproteolyticus, UniProt P00800).
T1 sequence (P00800 233-548): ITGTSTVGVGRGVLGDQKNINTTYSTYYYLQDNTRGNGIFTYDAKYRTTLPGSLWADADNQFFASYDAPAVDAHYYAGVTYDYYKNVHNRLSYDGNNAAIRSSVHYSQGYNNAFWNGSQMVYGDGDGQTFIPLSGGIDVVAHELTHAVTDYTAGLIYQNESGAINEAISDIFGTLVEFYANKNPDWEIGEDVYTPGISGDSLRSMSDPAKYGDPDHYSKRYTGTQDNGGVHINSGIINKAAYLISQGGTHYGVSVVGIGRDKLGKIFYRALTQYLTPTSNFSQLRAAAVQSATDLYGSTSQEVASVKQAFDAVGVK
Briefly: Proteolytic stability against thermolysin. The note with it: thermolysin from Bacillus thermoprotelyticus rokko; 65 °C, up to 12 h. It is filed as in vitro ADME.

For data set [5], the target named is T2, neuraminidase from Micromonospora viridifaciens (Micromonospora viridifaciens, UniProt Q02834).
T2 sequence (Q02834 38-647): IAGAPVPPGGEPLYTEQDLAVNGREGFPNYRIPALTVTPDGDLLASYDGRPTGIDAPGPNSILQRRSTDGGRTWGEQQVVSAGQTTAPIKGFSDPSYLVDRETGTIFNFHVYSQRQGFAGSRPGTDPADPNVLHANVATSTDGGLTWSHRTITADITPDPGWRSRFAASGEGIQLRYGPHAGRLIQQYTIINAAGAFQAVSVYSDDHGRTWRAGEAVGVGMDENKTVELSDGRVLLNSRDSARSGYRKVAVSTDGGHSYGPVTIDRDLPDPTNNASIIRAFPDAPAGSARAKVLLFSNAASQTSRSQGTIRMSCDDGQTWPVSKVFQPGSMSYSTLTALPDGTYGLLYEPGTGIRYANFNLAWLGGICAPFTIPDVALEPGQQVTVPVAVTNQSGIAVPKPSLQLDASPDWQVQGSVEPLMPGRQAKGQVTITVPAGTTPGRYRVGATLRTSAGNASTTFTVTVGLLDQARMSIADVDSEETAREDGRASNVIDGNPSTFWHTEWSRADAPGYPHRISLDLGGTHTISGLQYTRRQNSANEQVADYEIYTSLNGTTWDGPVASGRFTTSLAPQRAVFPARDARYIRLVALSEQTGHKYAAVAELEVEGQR
Briefly: Neuraminidase inhibition. It counts as biochemical. Conditions: Micromonospora viridifaciens enzyme; up to 50 μM.

The test system of data set [6] is neuraminidase from recombinant influenza A virus H1N1. The experiment in a line: Neuraminidase inhibition. It counts as biochemical. Conditions: recombinant influenza A virus H1N1 enzyme; up to 50 μM.
The subject of data set [7] is veratridine binding site of the VGSC (neurotoxin site 2).
The target in data set [8] is neuraminidase from Vibrio cholera (Vibrio cholerae serotype O1, UniProt P0C6E9). The experiment in a line: Neuraminidase inhibition. The note with it: Vibrio cholera enzyme; up to 50 μM. It is filed as biochemical.
Another data set relates to mice. Briefly: Toxicity in mice. It counts as in vivo. The note with it: i.p. 40 μg/g.
The test system of data set [9] is murine cerebrocortical neuron cells. Briefly: Effect on neuronal Ca2+ oscillations, peptide alone. It counts as cell-based, mouse. Conditions: ASPA alone, without veratridine.
For the next data set, the system named is bacterial neuraminidases. The note with it: cited from earlier work.

Positions of bridges follow the written chain, without caps; N, C: chain ends. Non-standard residues stand in square brackets, D forms with d. Residues, ends and D or L forms follow the SMILES beside them. pGlu = O=C1CC[C@@H](C(=O)O)N1

proteinase K, sequence (P06873 106-384): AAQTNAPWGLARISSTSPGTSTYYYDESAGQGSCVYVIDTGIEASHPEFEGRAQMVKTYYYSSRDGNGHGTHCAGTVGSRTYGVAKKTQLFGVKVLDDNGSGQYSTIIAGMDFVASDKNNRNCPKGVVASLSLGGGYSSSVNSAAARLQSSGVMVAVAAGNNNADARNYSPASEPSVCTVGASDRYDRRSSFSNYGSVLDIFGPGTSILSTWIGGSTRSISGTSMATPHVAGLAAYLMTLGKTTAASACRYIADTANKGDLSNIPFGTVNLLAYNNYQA
voltage-gated Na+ (NaV1.2) channel, sequence (Q99250 whole entry): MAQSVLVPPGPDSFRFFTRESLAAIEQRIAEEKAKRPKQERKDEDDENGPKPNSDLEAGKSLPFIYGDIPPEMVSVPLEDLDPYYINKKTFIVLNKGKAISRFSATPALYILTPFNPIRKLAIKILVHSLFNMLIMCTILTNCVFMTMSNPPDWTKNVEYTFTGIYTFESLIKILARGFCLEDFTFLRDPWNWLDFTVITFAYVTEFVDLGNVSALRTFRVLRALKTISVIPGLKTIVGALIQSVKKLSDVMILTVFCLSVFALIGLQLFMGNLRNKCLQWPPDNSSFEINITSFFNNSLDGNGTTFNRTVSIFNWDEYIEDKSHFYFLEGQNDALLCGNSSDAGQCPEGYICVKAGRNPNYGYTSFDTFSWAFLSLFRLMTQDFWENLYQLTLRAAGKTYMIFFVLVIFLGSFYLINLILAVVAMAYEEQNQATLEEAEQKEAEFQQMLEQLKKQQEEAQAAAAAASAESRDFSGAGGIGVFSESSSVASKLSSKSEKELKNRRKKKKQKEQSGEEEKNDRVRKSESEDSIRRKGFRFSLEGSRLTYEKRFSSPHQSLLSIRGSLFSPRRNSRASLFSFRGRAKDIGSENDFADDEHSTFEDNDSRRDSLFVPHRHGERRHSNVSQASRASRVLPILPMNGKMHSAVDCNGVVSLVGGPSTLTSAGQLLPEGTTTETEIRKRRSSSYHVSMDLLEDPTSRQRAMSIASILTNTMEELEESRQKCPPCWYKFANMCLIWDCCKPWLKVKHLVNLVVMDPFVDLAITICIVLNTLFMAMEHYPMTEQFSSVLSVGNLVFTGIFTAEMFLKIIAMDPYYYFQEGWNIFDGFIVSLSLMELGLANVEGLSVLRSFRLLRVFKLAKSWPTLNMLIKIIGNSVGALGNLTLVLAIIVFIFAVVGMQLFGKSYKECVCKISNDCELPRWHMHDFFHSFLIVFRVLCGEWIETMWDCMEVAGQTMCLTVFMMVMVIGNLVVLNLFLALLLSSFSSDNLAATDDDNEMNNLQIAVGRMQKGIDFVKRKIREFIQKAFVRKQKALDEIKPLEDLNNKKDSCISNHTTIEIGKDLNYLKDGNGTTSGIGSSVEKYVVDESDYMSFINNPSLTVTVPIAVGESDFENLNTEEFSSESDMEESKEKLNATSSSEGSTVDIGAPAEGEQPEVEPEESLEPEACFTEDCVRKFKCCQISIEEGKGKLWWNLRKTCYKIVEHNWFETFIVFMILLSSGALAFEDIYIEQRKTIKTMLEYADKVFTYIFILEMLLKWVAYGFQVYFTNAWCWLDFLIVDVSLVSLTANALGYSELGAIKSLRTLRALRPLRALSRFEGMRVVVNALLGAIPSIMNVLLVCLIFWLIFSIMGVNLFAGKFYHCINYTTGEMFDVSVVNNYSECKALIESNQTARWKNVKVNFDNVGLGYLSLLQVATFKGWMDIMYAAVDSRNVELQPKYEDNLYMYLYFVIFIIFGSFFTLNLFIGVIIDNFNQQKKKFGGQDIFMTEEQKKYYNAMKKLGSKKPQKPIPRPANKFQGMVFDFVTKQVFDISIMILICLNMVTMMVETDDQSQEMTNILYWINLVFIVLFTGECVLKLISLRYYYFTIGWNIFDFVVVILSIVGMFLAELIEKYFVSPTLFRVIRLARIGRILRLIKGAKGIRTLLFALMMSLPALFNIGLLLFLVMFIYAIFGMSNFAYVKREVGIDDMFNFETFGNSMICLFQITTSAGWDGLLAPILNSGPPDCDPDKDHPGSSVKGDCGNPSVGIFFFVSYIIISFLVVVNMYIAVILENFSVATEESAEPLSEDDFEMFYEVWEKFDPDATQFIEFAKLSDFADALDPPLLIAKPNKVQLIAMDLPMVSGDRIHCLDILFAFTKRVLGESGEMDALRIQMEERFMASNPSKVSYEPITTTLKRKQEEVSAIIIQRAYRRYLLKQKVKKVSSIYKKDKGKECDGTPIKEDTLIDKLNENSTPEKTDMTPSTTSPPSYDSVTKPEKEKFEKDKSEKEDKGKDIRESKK
voltage-gated Ca2+ (Cav1.2) channel, sequence (Q13936 whole entry): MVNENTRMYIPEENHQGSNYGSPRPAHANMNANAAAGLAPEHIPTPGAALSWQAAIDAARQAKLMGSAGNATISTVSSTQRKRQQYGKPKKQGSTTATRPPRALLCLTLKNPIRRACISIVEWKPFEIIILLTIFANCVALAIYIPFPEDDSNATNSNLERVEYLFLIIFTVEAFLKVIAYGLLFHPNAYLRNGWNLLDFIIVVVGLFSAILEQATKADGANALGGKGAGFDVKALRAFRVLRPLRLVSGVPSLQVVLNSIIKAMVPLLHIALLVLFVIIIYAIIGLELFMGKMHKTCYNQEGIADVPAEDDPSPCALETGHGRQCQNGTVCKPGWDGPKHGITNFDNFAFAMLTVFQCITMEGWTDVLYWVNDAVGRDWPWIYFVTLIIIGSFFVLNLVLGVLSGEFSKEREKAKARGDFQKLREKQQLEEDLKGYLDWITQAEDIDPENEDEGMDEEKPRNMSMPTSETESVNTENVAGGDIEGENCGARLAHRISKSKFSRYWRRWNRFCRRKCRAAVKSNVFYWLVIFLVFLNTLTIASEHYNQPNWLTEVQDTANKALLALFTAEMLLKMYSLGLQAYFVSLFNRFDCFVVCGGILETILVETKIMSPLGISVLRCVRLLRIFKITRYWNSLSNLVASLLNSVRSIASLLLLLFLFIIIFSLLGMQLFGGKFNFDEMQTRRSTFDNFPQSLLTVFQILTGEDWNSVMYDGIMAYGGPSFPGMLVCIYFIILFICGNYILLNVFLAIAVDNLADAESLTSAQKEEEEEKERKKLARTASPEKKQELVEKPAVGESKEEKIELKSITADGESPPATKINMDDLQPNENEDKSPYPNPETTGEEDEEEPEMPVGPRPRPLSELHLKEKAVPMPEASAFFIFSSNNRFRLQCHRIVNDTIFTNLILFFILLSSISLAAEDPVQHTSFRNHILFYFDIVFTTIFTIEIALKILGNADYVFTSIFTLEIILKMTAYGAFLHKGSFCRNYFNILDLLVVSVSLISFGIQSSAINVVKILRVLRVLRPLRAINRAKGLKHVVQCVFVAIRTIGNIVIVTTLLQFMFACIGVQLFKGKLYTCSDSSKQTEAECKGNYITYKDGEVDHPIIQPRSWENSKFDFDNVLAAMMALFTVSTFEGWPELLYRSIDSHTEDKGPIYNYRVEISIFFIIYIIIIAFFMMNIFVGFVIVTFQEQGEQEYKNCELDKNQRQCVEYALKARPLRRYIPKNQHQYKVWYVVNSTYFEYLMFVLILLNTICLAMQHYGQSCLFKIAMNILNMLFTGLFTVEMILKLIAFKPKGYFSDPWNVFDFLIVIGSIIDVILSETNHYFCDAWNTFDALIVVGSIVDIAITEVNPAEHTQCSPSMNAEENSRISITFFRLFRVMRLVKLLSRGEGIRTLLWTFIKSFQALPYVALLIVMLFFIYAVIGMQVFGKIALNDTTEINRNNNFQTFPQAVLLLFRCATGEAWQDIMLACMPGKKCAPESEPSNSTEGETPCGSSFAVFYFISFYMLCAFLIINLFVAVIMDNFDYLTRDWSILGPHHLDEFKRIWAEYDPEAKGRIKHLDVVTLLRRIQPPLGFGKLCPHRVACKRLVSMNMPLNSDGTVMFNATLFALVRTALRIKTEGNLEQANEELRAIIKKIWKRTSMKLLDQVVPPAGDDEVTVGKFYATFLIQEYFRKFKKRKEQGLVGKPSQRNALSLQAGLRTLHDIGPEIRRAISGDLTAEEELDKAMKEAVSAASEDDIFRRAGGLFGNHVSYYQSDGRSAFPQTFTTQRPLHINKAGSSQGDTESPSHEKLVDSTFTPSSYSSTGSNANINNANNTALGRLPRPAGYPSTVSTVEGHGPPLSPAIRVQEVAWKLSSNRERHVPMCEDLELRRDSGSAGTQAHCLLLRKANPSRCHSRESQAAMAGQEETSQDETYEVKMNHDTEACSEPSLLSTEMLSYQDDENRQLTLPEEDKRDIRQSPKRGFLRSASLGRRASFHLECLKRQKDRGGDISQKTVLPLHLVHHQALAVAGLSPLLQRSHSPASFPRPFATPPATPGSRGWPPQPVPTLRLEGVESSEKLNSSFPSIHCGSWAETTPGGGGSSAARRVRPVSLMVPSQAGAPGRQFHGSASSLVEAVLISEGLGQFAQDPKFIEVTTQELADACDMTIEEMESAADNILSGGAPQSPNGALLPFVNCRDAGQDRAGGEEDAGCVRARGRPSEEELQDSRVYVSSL

For the compound `CC[C@H](C)[C@@H]1NC(=O)[C@@H]2CSSC[C@@H]3NC(=O)[C@H](CO)NC(=O)[C@H](CCC(=O)O)NC(=O)CNC(=O)[C@H](CCC(=O)O)NC(=O)[C@H](Cc4ccccc4)NC(=O)[C@H](C)NC(=O)[C@@H](NC(=O)CNC(=O)[C@@H]4CCC(=O)N4)CSSC[C@H](NC(=O)[C@H](CSSC[C@@H](C(=O)N[C@@H](Cc4ccc(O)cc4)C(=O)N[C@@H](Cc4ccc(O)cc4)C(=O)N[C@@H](CC(C)C)C(=O)O)NC(=O)[C@H]([C@@H](C)O)NC(=O)CNC(=O)[C@H](CC(=O)O)NC(=O)[C@@H]4CCCN4C(=O)[C@H](CC(N)=O)NC(=O)CNC(=O)[C@@H]4CCCN4C1=O)NC(=O)[C@@H]1CCCN1C(=O)[C@H](Cc1ccc(O)cc1)NC(=O)[C@H](Cc1ccccc1)NC(=O)[C@H](CCC(N)=O)NC(=O)[C@H](C(C)C)NC(=O)[C@H](CC(N)=O)NC3=O)C(=O)N1CCC[C@H]1C(=O)NCC(=O)N[C@@H](CC(C)C)C(=O)NCC(=O)N[C@@H](CC(C)C)C(=O)N[C@@H]([C@@H](C)O)C(=O)N2` [ASPA, Asteropsin A] ([pGlu]GCAFEGESCNVQFYPCCPGLGLTCIPGNPDGTCYYL-OH; disulfide 3-18, 10-25, 17-34; C-terminus assumed), the Neuraminidase inhibition entry in data set [1], in [4], in [5], in data set [6] and in [8] was “no inhibition” in each case. For the same compound, the “Toxicity or behavior changes” value in the data set on chicks and in the data set on mice was “no toxicity or behavior changes were observed” in each case. In [2], the “Inhibition or activation of Cav1.2” value is “Neither the inhibition nor the activation”. In addition, at proteinase K, the “Proteolytic stability against proteinase K” value is “extraordinary proteolytic stability”. Also, the “Inhibition or activation of NaV1.2” value in [3] is “Neither the inhibition nor the activation”. For the same compound, the “Proteolytic stability against thermolysin” value at thermolysin is recorded as “extraordinary proteolytic stability”. In addition, in [7], the “Allosteric interaction with the veratridine binding site of the VGSC” value was “not observed”. Besides, in data set [9], the “Effect on oscillation frequency or amplitude of neuronal Ca2+ currents” value was “did not modify”.
As for asteropine A [APA], the “Inhibition of bacterial neuraminidases” value in the data set with bacterial neuraminidases is listed as “potent competitive inhibitor”.
